According to patent publication US8476434B2, “Protein kinase modulators and method of use” (Amgen Inc., priority 2004, dated 2013):

Target: T1, LCK KD GST (225-509) (Homo sapiens, UniProt P06239)
T1 construct: LCK KD GST (225-509); GST
Test: LCK Homogenous Time Resolved Fluorescent (HTRF) kinase assay
Type: biochemical
Experimental: The LCK HTRF assay begins with LCK in the presence of ATP phosphorylating the biotinylated peptide Gastrin. The reaction incubates for 90 min. To quench the assay detection reagents are added which both stop the reaction by diluting out the enzyme and chelating the metals due to the presence of EDTA. Once the detection reagents are added the assay incubates for 30 min to allow for equilibration of the detection reagents.
Buffer conditions are as follows: 50 mM HEPES pH 7.5, 50 mM NaCl, 20 mM MgCl, 5 mM MnCl, 2 mM DTT, 0.05% BSA.
The assay is quenched and stopped with 160 μL of detection reagent. Detection reagents are as follows: Buffer made of 50 mM Tris, pH 7.5, 100 mM NaCl, 3 mM EDTA, 0.05% BSA, 0.1% Tween20.
The assay plate is read in either a Discovery or a RubyStar.

T1 sequence (P06239 225-509): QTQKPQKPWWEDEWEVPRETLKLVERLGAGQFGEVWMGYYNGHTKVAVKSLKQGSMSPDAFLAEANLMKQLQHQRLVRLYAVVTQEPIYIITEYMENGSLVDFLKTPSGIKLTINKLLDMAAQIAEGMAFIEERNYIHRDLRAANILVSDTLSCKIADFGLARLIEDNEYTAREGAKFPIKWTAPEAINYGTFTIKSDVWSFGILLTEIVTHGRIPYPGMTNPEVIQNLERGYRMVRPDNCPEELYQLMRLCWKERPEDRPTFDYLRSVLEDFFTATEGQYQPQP

| IC50 [nM] | SMILES |
| --- | --- |
| < 1000 | CNc1cc(-c2cccnc2Oc2cc(NC(=O)c3cccc(C(C)C)c3)cc(C(F)(F)F)c2)ccn1 [N-(3-((2′-(methylamino)-3,4′-bipyridin-2-yl)oxy)-5-(trifluoromethyl)phenyl)-3-(1-methylethyl)benzamide] |
| < 1000 | CNc1ncnc(-c2cccnc2Oc2cccc(NC(=O)c3cccc(C(C)C)c3)c2)n1 [N-(3-((3-(4-(methylamino)-1,3,5-triazin-2-yl)-2-pyridinyl)oxy)phenyl)-3-(1-methylethyl)benzamide] |
| < 1000 | CCOc1cccc(NC(=O)c2ccc(C)c(Nc3ncccc3-c3ccncn3)c2)c1 [N-(3-(ethyloxy)phenyl)-4-methyl-3-((3-(4-pyrimidinyl)-2-pyridinyl)amino)benzamide] |
| < 1000 | CNc1nccc(-c2cccnc2Oc2ccc(NC(=O)Nc3cccc(Br)c3)cc2C)n1 [N-(3-bromophenyl)-N′-(3-methyl-4-((3-(2-(methylamino)-4-pyrimidinyl)-2-pyridinyl)oxy)phenyl)urea] |
| < 1000 | CNc1nccc(-c2cccnc2Oc2ccc(F)c(C(=O)Nc3cc(C(F)(F)F)cc(Cl)c3N(C)CCCN(C)C)c2)n1 [N-(3-chloro-2-((3-(dimethylamino)propyl)(methyl)amino)-5-(trifluoromethyl)phenyl)-2-fluoro-5-((3-(2-(methylamino)-4-pyrimidinyl)-2-pyridinyl)oxy)benzamide] |
| < 1000 | Cc1ccc(C(=O)Nc2cccc(Cl)c2)cc1Nc1ncccc1-c1ccncn1 [N-(3-chlorophenyl)-4-methyl-3-((3-(4-pyrimidinyl)-2-pyridinyl)amino)benzamide] |
| < 1000 | CNc1nccc(-c2cccnc2Oc2ccc(NC(=O)Nc3cccc(Cl)c3)cc2C)n1 [N-(3-chlorophenyl)-N′-(3-methyl-4-((3-(2-(methylamino)-4-pyrimidinyl)-2-pyridinyl)oxy)phenyl)urea] |
| < 1000 | CNc1nccc(-c2cccnc2Oc2ccc(NC(=O)Nc3cc(F)cc(C(F)(F)F)c3)cc2C)n1 [N-(3-fluoro-5-(trifluoromethyl)phenyl)-N′-(3-methyl-4-((3-(2-(methylamino)-4-pyrimidinyl)-2-pyridinyl)oxy)phenyl)urea] |
| < 1000 | CNc1nccc(-c2cccnc2Oc2ccc(NC(=O)Nc3cccc(F)c3)cc2C)n1 [N-(3-fluorophenyl)-N′-(3-methyl-4-((3-(2-(methylamino)-4-pyrimidinyl)-2-pyridinyl)oxy)phenyl)urea] |
| < 1000 | CNc1nccc(-c2cccnc2Oc2ccc(NC(=O)Nc3cc(C(F)(F)F)ccc3OCCN3CCCC3)cc2C)n1 [N-(3-methyl-4-((3-(2-(methylamino)-4-pyrimidinyl)-2-pyridinyl)oxy)phenyl)-N′-(2-((2-(1-pyrrolidinyl)ethyl)oxy)-5-(trifluoromethyl)phenyl)urea] |
| < 1000 | CNc1nccc(-c2cccnc2Oc2ccc(NC(=O)Nc3cc(C(F)(F)F)ccc3CN3CCN(C)CC3)cc2C)n1 [N-(3-methyl-4-((3-(2-(methylamino)-4-pyrimidinyl)-2-pyridinyl)oxy)phenyl)-N′-(2-((4-methyl-1-piperazinyl)methyl)-5-(trifluoromethyl)phenyl)urea] |
| < 1000 | CNc1nccc(-c2cccnc2Oc2ccc(NC(=O)Nc3cc(C4CCN(C)CC4)cc(C(F)(F)F)c3)cc2C)n1 [N-(3-methyl-4-((3-(2-(methylamino)-4-pyrimidinyl)-2-pyridinyl)oxy)phenyl)-N′-(3-(1-methyl-4-piperidinyl)-5-(trifluoromethyl)phenyl)urea] |
| < 1000 | O=C(Nc1cccc(C(F)(F)F)c1)Nc1ccc(Oc2ncccc2-c2ccncn2)c2ccccc12 [N-(4-((3-(4-pyrimidinyl)-2-pyridinyl)oxy)-1-naphthalenyl)-N′-(3-(trifluoromethyl)phenyl)urea] |
| < 1000 | CNc1ncnc(-c2cccnc2Oc2cc(NC(=O)c3cccc(OC(F)(F)F)c3)ccc2C)n1 [N-(4-methyl-3-((3-(4-(methylamino)-1,3,5-triazin-2-yl)-2-pyridinyl)oxy)phenyl)-3-((trifluoromethyl)oxy)benzamide] |
| < 1000 | CNc1nccc(-c2cccnc2Oc2cc(C(=O)Nc3cc(C(C)(C)C)ccc3OC)ccc2C)n1 [N-(5-(1,1-dimethylethyl)-2-(methyloxy)phenyl)-4-methyl-3-((3-(2-(methylamino)-4-pyrimidinyl)-2-pyridinyl)oxy)benzamide] |
| < 1000 | CNc1nccc(-c2cccnc2Oc2ccc(NC(=O)Nc3cc(C(C)(C)C)ccc3OC)cc2C)n1 [N-(5-(1,1-dimethylethyl)-2-(methyloxy)phenyl)-N′-(3-methyl-4-((3-(2-(methylamino)-4-pyrimidinyl)-2-pyridinyl)oxy)phenyl)urea] |
| < 1000 | CNc1ncnc(-c2cccnc2Oc2cc(C(=O)Nc3cc(C(C)(C)C)on3)ccc2C)n1 [N-(5-(1,1-dimethylethyl)-3-isoxazolyl)-4-methyl-3-((3-(4-(methylamino)-1,3,5-triazin-2-yl)-2-pyridinyl)oxy)benzamide] |
| < 1000 | CNc1nccc(-c2cccnc2Oc2ccc(NC(=O)Nc3cc(Cl)ccc3N(C)CCCN(C)C)cc2C)n1 [N-(5-chloro-2-((3-(dimethylamino)propyl)(methyl)amino)phenyl)-N′-(3-methyl-4-((3-(2-(methylamino)-4-pyrimidinyl)-2-pyridinyl)oxy)phenyl)urea] |
| < 1000 | CNc1nccc(-c2cccnc2Oc2ccc(NC(=O)Nc3cc(Cl)ccc3N(C)[C@@H]3CCN(C)C3)cc2C)n1 [N-(5-chloro-2-(methyl((3R)-1-methyl-3-pyrrolidinyl)amino)phenyl)-N′-(3-methyl-4-((3-(2-(methylamino)-4-pyrimidinyl)-2-pyridinyl)oxy)phenyl)urea] |
| < 1000 | CNc1nccc(-c2cccnc2Oc2ccc(NC(=O)Nc3cc(Cl)ccc3C)cc2C)n1 [N-(5-chloro-2-methylphenyl)-N′-(3-methyl-4-((3-(2-(methylamino)-4-pyrimidinyl)-2-pyridinyl)oxy)phenyl)urea] |
| < 1000 | COc1ccc(C2CCCCC2)cc1NC(=O)c1ccc(C)c(Oc2ncccc2-c2ncnc(NCCO)n2)c1 [N-(5-cyclohexyl-2-(methyloxy)phenyl)-3-((3-(4-((2-hydroxyethyl)amino)-1,3,5-triazin-2-yl)-2-pyridinyl)oxy)-4-methylbenzamide] |
| < 1000 | COc1ccc(C2CCCCC2)cc1NC(=O)c1ccc(C)c(Oc2ncccc2-c2ncnc(NCCCCN(C)C)n2)c1 [N-(5-cyclohexyl-2-(methyloxy)phenyl)-3-((3-(4-((4-(dimethylamino)butyl)amino)-1,3,5-triazin-2-yl)-2-pyridinyl)oxy)-4-methylbenzamide] |
| < 1000 | CCNc1ncnc(-c2cccnc2Oc2cc(C(=O)Nc3cc(C4CCCCC4)ccc3OC)ccc2C)n1 [N-(5-cyclohexyl-2-(methyloxy)phenyl)-3-((3-(4-(ethylamino)-1,3,5-triazin-2-yl)-2-pyridinyl)oxy)-4-methylbenzamide] |
| < 1000 | CNc1cc(-c2cccnc2Oc2cc(C(=O)Nc3cc(C4CCCCC4)ccc3OC)ccc2C)ccn1 [N-(5-cyclohexyl-2-(methyloxy)phenyl)-4-methyl-3-((2′-(methylamino)-3,4′-bipyridin-2-yl)oxy)benzamide] |
| < 1000 | CNc1nccc(-c2cccnc2Oc2cc(C(=O)Nc3cc(C4CCCCC4)ccc3OC)ccc2C)n1 [N-(5-cyclohexyl-2-(methyloxy)phenyl)-4-methyl-3-((3-(2-(methylamino)-4-pyrimidinyl)-2-pyridinyl)oxy)benzamide] |
